Organism: Rattus norvegicus
Assay: Open TG-GATES - Regimen: Daily Repeat
Type: toxicity, organism-based, Sprague-Dawley
Design: regimen Daily Repeat, gender Male, age 6 weeks
Conditions: in vivo, po, route gavage; for APTT / Bas / Eos / Fbg / Hb / Ht / Lym / MCH / MCV / Mono / Neu / PT / Plat / RBC / Ret / WBC: tissue Blood; for KIDNEY_L / KIDNEY_R / KIDNEY_TOTAL: tissue Kidney; for LIVER: tissue Liver; for ALP / ALT / AST / BUN / CRE / Ca / Cl / DBIL / GLC / IP / K / LDH / Na / PL / RALB / TBIL / TP / gamma-GTP: tissue Plasma
[1] = 30 mg/kg, 72 h, dose level Low, time 3 day
[2] = 30 mg/kg, […], dose level Low, time 7 day
[3] = 30 mg/kg, […], dose level Low, time 14 day
[4] = 30 mg/kg, […], dose level Low, time 28 day
[5] = 100 mg/kg, 72 h, dose level Middle, time 3 day

NC(=O)N1c2ccccc2C=Cc2ccccc21 [CARBAMAZEPINE]
APTT [1]: 19.7 s
Bas [1]: 0%
Eos [1]: 1%
Fbg [1]: 213 mg/dL
Hb [1]: 13.4 g/dL
Ht [1]: 39.4%
Lym [1]: 80.4%
MCH [1]: 21 pg
MCV [1]: 62 fL
Mono [1]: 3.4%
Neu [1]: 14%
PT [1]: 12.2 s
Plat [1]: 120.4 x10_4/uL
RBC [1]: 636 x10_4/ul
Ret [1]: 5.2%
WBC [1]: 98.2 x10_2/uL
KIDNEY_L [1]: 1 g
KIDNEY_R [1]: 1 g
KIDNEY_TOTAL [1]: 2 g
LIVER [1]: 11.7 g
ALP [1]: 1007.4 IU/L
ALT [1]: 35.6 IU/L
AST [1]: 66.6 IU/L
BUN [1]: 14.8 mg/dL
CRE [1]: 0.4 mg/dL
Ca [1]: 10.8 mg/dL
Cl [1]: 103.2 meq/L
DBIL [1]: 0.094 mg/dL
GLC [1]: 209.6 mg/dL
IP [1]: 7.6 mg/dL
K [1]: 3.5 meq/L
LDH [1]: 197.2 IU/L
Na [1]: 140 meq/L
PL [1]: 148.8 mg/dL
RALB [1]: 3.3 g/dL
TBIL [1]: 0.1 mg/dL
TP [1]: 5.6 g/dL
gamma-GTP [1]: 1.2 IU/L
TERMINAL_BW [2]: 270.1 g
TERMINAL_BW [3]: 327.6 g
TERMINAL_BW [4]: 366.9 g
APTT [2]: 21.4 s
Bas [2]: 0%
Eos [2]: 0.8%
Fbg [2]: 214.2 mg/dL
Hb [2]: 13.7 g/dL
Ht [2]: 40.2%
Lym [2]: 83.2%
MCH [2]: 20.8 pg
MCV [2]: 61.1 fL
Mono [2]: 2.4%
Neu [2]: 12.6%
PT [2]: 12 s
Plat [2]: 127.1 x10_4/uL
RBC [2]: 658.2 x10_4/ul
Ret [2]: 4.4%
WBC [2]: 103.7 x10_2/uL
APTT [3]: 20.7 s
Bas [3]: 0%
Eos [3]: 1%
Fbg [3]: 206.2 mg/dL
Hb [3]: 14.3 g/dL
Ht [3]: 41.1%
Lym [3]: 83%
MCH [3]: 20.4 pg
MCV [3]: 58.8 fL
Mono [3]: 2.4%
Neu [3]: 12.6%
PT [3]: 12.2 s
Plat [3]: 119.9 x10_4/uL
RBC [3]: 700.8 x10_4/ul
Ret [3]: 4%
WBC [3]: 100 x10_2/uL
APTT [4]: 21 s
Bas [4]: 0%
Eos [4]: 0.8%
Fbg [4]: 197.8 mg/dL
Hb [4]: 15.9 g/dL
Ht [4]: 45.7%
Lym [4]: 83%
MCH [4]: 19.5 pg
MCV [4]: 55.9 fL
Mono [4]: 2.2%
Neu [4]: 12.6%
PT [4]: 12.3 s
Plat [4]: 108.1 x10_4/uL
RBC [4]: 820.4 x10_4/ul
Ret [4]: 2.2%
WBC [4]: 127.9 x10_2/uL
KIDNEY_L [2]: 1.1 g
KIDNEY_R [2]: 1.1 g
KIDNEY_TOTAL [2]: 2.2 g
KIDNEY_L [3]: 1.3 g
KIDNEY_R [3]: 1.3 g
KIDNEY_TOTAL [3]: 2.6 g
KIDNEY_L [4]: 1.3 g
KIDNEY_R [4]: 1.3 g
KIDNEY_TOTAL [4]: 2.6 g
LIVER [2]: 12.5 g
LIVER [3]: 15.3 g
LIVER [4]: 14.4 g
ALP [2]: 876.6 IU/L
ALT [2]: 37 IU/L
AST [2]: 70.6 IU/L
BUN [2]: 16.2 mg/dL
CRE [2]: 0.4 mg/dL
Ca [2]: 10.4 mg/dL
Cl [2]: 100.8 meq/L
DBIL [2]: 0.088 mg/dL
GLC [2]: 233.6 mg/dL
IP [2]: 8.2 mg/dL
K [2]: 3.7 meq/L
LDH [2]: 187.4 IU/L
Na [2]: 139.4 meq/L
PL [2]: 150.8 mg/dL
RALB [2]: 3.4 g/dL
TBIL [2]: 0.1 mg/dL
TP [2]: 5.7 g/dL
gamma-GTP [2]: 1 IU/L
ALP [3]: 890.2 IU/L
ALT [3]: 30.8 IU/L
AST [3]: 60.8 IU/L
BUN [3]: 16.9 mg/dL
CRE [3]: 0.5 mg/dL
Ca [3]: 10.7 mg/dL
Cl [3]: 101.2 meq/L
DBIL [3]: 0.1 mg/dL
GLC [3]: 219.8 mg/dL
IP [3]: 7.1 mg/dL
K [3]: 3.8 meq/L
LDH [3]: 208.4 IU/L
Na [3]: 140.6 meq/L
PL [3]: 160.2 mg/dL
RALB [3]: 3.4 g/dL
TBIL [3]: 0.2 mg/dL
TP [3]: 5.9 g/dL
gamma-GTP [3]: 0.8 IU/L
ALP [4]: 673 IU/L
ALT [4]: 36.6 IU/L
AST [4]: 68.4 IU/L
BUN [4]: 17.8 mg/dL
CRE [4]: 0.5 mg/dL
Ca [4]: 10.3 mg/dL
Cl [4]: 101.8 meq/L
DBIL [4]: 0.098 mg/dL
GLC [4]: 224.4 mg/dL
IP [4]: 6.7 mg/dL
K [4]: 3.4 meq/L
LDH [4]: 150.8 IU/L
Na [4]: 141.4 meq/L
PL [4]: 148 mg/dL
RALB [4]: 3.5 g/dL
TBIL [4]: 0.1 mg/dL
TP [4]: 6.2 g/dL
gamma-GTP [4]: 1 IU/L
TERMINAL_BW [5]: 234.6 g
APTT [5]: 20.1 s
Bas [5]: 0%
